Test system: DENV
Experiment: DENV replication in Huh7 cells treated with ARFGAP1 inhibitor
Assay type: cell-based, Dengue virus
Conditions: DENV MOI of 0.5, increasing concentrations, 24 hours post-infection
Experimental: Human hepatoma Huh7 cells were infected with DENV (MOI of 0.5) and treated with increasing concentrations of QS 11. Viral RNA synthesis, DENV capsid protein levels, and infectious virion production were measured at 24 hours post-infection.

SMILES: OC[C@H](Cc1ccccc1)Nc1nc(Oc2ccc3c(c2)CCC3)nc2c1ncn2Cc1ccc(-c2ccccc2)cc1 [QS 11]
- Viral RNA synthesis (FIG. 6A): reduced viral RNA synthesis
- DENV capsid protein levels (FIG. 6B): reduced
- Infectious virion production (FIG. 6C): reduced

— patent US10004751B2, “Compositions and methods for treating Dengue virus infection” (The J. David Gladstone Institutes, priority 2014, dated 2018)
